Key:
MDA-MB-231 cells [1] = experiment: MDA-MB-231 cells treated for a week, examined under microscope; type: cell-based; conditions: 10 μM, one week, FIG. 3
MDA-MB-231 cells [2] = experiment: MDA-MB-231 colony formation, crystal violet staining; type: cell-based; conditions: 10 days, FIG. 4
MCF7 cells [3] = experiment: MCF7 colony formation; type: cell-based; conditions: zero to 25 μM, as concentration rose, 10 days, FIG. 5a
[4] = system: MCF7 cells over-expressing ER-α36 (MCF7/ER36); experiment: Surviving cell count, MCF7 cells over-expressing ER-α36; type: cell-based; conditions: two weeks, FIG. 6
Description: MCF7 cells over-expressing ER-α36 were made by stably transfecting MCF cells with an ER-α36 expression vector. The ER-α36 expression vector was constructed by cloning a 1.1-kb cDNA fragment of ER-α36 from pBluescript plasmid into a mammalian expression vector pCB6+ as described before (Wang et al., 2005, BBRC, 336:1023-1027). The constructed ER-α36 expression vector contains the cytomegalovirus (CMV) early promoter. MCF7 cells were transfected with the ER-α36 expression vector using the FuGene6 transfection reagent (Roche Molecular Biochemicals). Forty-eight hours after transfection, the cells were re-plated and selected with 500 μg/ml of G418 (Invitrogen) for about two weeks until colonies appeared. The clones were then pooled and cultured to confirm the expression of ER-α36 by Western blot analysis.

H226 Lung Cancer Cells = experiment: H226 lung cancer surviving cell count; type: cell-based; conditions: two weeks, FIG. 10
LnCap cells = experiment: LNCap prostate cancer surviving cell count; type: cell-based; conditions: two weeks, FIG. 10
PC3 cells = experiment: PC3 prostate cancer surviving cell count; type: cell-based; conditions: two weeks, FIG. 10
[5] = system: MDA-MB-231 cell xenografts; experiment: MDA-MB-231 xenografts in nude mice, established tumors; type: in vivo; conditions: 5 mg per mouse by gavage every other day for 30 days, FIG. 11
Protocol: (§1) The vial was wrapped with aluminium foil and placed on a rocker at 37° C. for several hours. […] The Icaritin solution was administered to mice using the gavage technique. For gavaging, we used Animal Feeding Needles (Popper; cat No. 9921, size: 20GX1.1/2).
(§2) Tumor formation was assayed in female athymic nude mice (6 weeks old, strain CDI nu/nu, Charles River Breeding Laboratory). MCF7 cells or MDA-MB-231 cells at the concentration of 1×10^7 cells in 200 μl Matrigel (BD Biosciences) were injected into the mice by the mammary fatpad injection. A group of 5 mice were injected with each type of breast cancer cells. […] Tumor disappearance was determined by palpation, and the sizes of tumors were also monitored by measuring two perpendicular diameters with vernier calipers every other day and photographed.

MCF7 cell xenografts = experiment: MCF7 xenografts in nude mice, established tumors; type: in vivo; conditions: 5 mg per mouse by gavage every other day for 15 days, FIG. 12
Protocol: as §1, §2

[6] = system: MDA-MB-231 cell xenografts; experiment: MDA-MB-231 xenografts in nude mice, treatment right after implantation; type: in vivo; conditions: 1 mg per mouse twice a week for 36 days, started right after injection, FIG. 13
Protocol: Tumor formation was assayed in female athymic nude mice (6 weeks old, strain CDI nu/nu, Charles River Breeding Laboratory). MDA-MB-231 cells at the concentration of 1×10^7 cells in 200 μl Matrigel (BD Biosciences) were injected into the mice by the mammary fatpad injection. A group of 5 mice were injected with the breast cancer cells. The mice were treated with Icaritin right after the injection. […] Then the mice were sacrificed and the tumor tissues were dissected from the mice, photographed and weighed.

[7] = system: human breast cancer BCAP-37 cells xenografts; experiment: Human breast cancer BCAP-37 xenografts in nude mice; type: in vivo, BALB/c-nu mice; conditions: 15 days, FIG. 14a
Description: The original nude mice bearing BCAP-37 breast cancer were provided by the Institute of Materia Medica, Chinese Academy of Medical Sciences. Tumor tissues were taken from the mice and cut into small pieces. Several pieces of the tumor tissues were implanted into the armpit under the right front limb of female nude mice (provided by the Division of Experimental Animals of the Medical School of Beijing University). […] Starting on the seventh day, the mice were fed with Icaritin at three dosages. The high dosage was 0.7 mg per mouse per day (about 33 mg/kg/day). The medium dosage was 0.35 mg per mouse per day (about 16.5 mg/kg/day). The low dosage was 0.18 mg per mouse per day (about 8.25 mg/kg/day). […] Olive oil was used as a negative control wherein each mouse was fed with 0.1 ml of olive oil. […] Then the mice were sacrificed and the tumor tissues were dissected from the mice and weighed. Two parallel experiments were done for the tests. Ten female BALB/c-nu mice were used for each test compounds and each dosages for one of the two parallel experiment. Eight female BALB/c-nu mice were used for each test compounds and each dosages for the other parallel experiment. […] The effect of IC 163 on inhibiting breast cancer growth was tested in the same assay as described above. IC 163 was tested at the dosage of 0.7 mg per mouse per day (about 35 mg/kg/day). […] Olive oil was used as a negative control.

[8] = system: cervical cancer U14 cells; experiment: Murine cervical cancer U14 tumors in ICR mice; type: in vivo; conditions: 14 days, FIG. 15a
Protocol: The original ICR mice containing cervical cancer U14 cell line were provided by the Institute of Materia Medica, Chinese Academy of Medical Sciences. Five ml of abdominal fluid was drawn from the lower abdomen of the mice. The fluid was diluted at the ratio of 1:5 with saline. 0.2 ml of the diluted abdominal fluid was injected subcutaneously at the right front limb and chest of female ICR mice (provided by the Division of Experimental Animals of the Medical School of Beijing University). After the implantation, the mice were treated right away with Icaritin, Tamoxifen and olive oil, respectively. Icaritin was given at three dosages. The high dosage was 0.7 mg per mouse per day (about 33 mg/kg/day). The medium dosage was 0.35 mg per mouse per day (about 16.5 mg/kg/day). The low dosage was 0.18 mg per mouse per day (about 8.25 mg/kg/day). […] Olive oil was used as a negative control wherein each mouse was fed with 0.1 ml of olive oil. […] Then the mice were sacrificed and the tumor tissues were dissected from the mice and weighed. Ten female ICR mice were used for each test compounds and dosages. Three parallel experiments were carried out. […] The tumor growth inhibition rate was calculated using the same formula as Example 11.

[9] = system: human endometrial cancer Hec1A cells; experiment: MTT assay of Hec1A cell growth; type: cell-based; conditions: 24 hours
Protocol: Human endometrial cancer Hec1A cells (ATCC No.: HTB-112™) were subseeded in a 96-well culture plate at a concentration of 5×10^3 cells/well and were cultured in DMEM containing high glucose medium (HyClone, SH30022.01B). […] The cells then were incubated with 0.5 mg/ml 3-(4,5-dimethylthiazol-2-yl)-2,5-diphenyltetrazolium bromide (MTT) for 4 hours at 37° C. wherein the MTT was reduced to insoluble purple formazan by the active mitochondrial reductase enzymes in the living cells. Then the excessive liquid MTT was removed from the reaction mixture. 150 μl of DMSO was added to dissolve the purple formazan into a colored solution. The optical density of the colored solution was measured at 490 nm using a microplate reader.

breast cancer cells = conditions: background, literature (Liu 2005; Wang 2004; Ye 2005); cited from earlier work
MCF7 cells [10] = experiment: MCF7 surviving cell count (hemocytometer); conditions: two weeks
[11] = system: Tamoxifen resistant MCF7 cells (MCF7/TAM); experiment: Surviving cell count, Tamoxifen resistant MCF7 cells; conditions: two weeks, FIG. 6
[12] = high dosage 0.7 mg per mouse per day
[13] = low dosage 0.18 mg per mouse per day
[14] = medium dosage 0.35 mg per mouse per day

For COc1ccc(-c2oc3c(CC=C(C)C)c(O)cc(O)c3c(=O)c2O)cc1 [Icaritin], the cell morphology (MDA-MB-231 cells [1]) was “features characteristic of apoptotic cells”, the “number of surviving cells” value (MDA-MB-231 cells [1]) was “dramatically reduced” and the “numbers of colonies of MDA-MB-231 cells” value (MDA-MB-231 cells [2]; 5 μM) was “decreased”. The “numbers of colonies of MDA-MB-231 cells” value (MDA-MB-231 cells [2]; 10 μM) was “reduced to near zero”, the “number of colonies of MCF7 cells” value (MCF7 cells [3]) was “significantly reduced” and the “growth of cells (numbers of survived cells)” value (“growth of cells” for short) ([4]; 5 μM) was “significantly inhibited”. For the same molecule, the “inhibition compared with MCF7 cells” value ([4]; 5 μM) was “stronger”, the numbers of cells ([4]; 10 μM) was “near zero” and the numbers of cells (H226 Lung Cancer Cells; 5 μM) was “decreased”. The numbers of cells (H226 Lung Cancer Cells; 10 μM) was “further reduced”, the numbers of cells (LnCap cells; 5 μM) was “decreased” and the numbers of cells (LnCap cells; 10 μM) was “further reduced”. The numbers of cells (PC3 cells; 5 μM) was “decreased”, the numbers of cells (PC3 cells; 10 μM) was “further reduced” and the tumor size [5] was “significant tumor size reduction”. For the same molecule, the tumor size (MCF7 cell xenografts) was “significant tumor size reduction”, the tumor size [6] was “tumor size reduction” and the “tumor weight compared with negative controls” value [7, 12] was “reduced tumor weights”. The “tumor weight compared with negative controls” value [7, 13] was “reduced tumor weights”, the “tumor weight compared with negative controls” value [7, 14] was “reduced tumor weights” and the “tumor weight compared with negative control” value [8, 12] was “reduced tumor weights”. The “tumor weight compared with negative control” value [8, 13] was “reduced tumor weights”, the “tumor weight compared with negative control” value [8, 14] was “reduced tumor weights” and the “effect on the growth of Hec1A cells” value ([9]; 0 to 5 μM) was “significant inhibitory effect”. The “optical density at 490 nm (MTT)” value ([9]; increased concentrations 0 to 5 μM, FIG. 21) was “declined smoothly”, the “proliferation of breast cancer cells” value (breast cancer cells) was “significantly increase” and the “numbers of surviving MCF7 cells” value (MCF7 cells [10]; 5 μM and up, FIG. 5b) was “significantly reduced”. For the same molecule, the “growth of cells” value (MCF7 cells [10]; 5 μM, FIG. 6) was “significantly inhibited”, the numbers of cells (MCF7 cells [10]; 10 μM, FIG. 6) was “near zero” and the “growth of cells” value ([11]; 5 μM) was “significantly inhibited”. For the same molecule, the “inhibition compared with MCF7 cells” value ([11]; 5 μM) was “stronger” and the numbers of cells ([11]; 10 μM) was “near zero”.
